Experimental data taken from patent publication US3947411A, “Novel 1-aryl-2-arylalkyl-3-or-4-[4'-(substituted-alkyl)piperazino-1']butanols- 2-or-butenes-1, and methods of manufacture thereof” (Warner-Lambert Company, priority 1972, dated 1976).
≈ marks a conversion by molar mass, not a printed value.

Columns and labels:
Candida albicans = assay: Agar well inhibition zone test against fungi, Candida albicans (Table II); conditions: quantity per well giving inhibition zone (500, 50, 5 μg tested); Sabouraud agar, 28°, 48 hours
A. niger [1] = assay: Minimum inhibitory concentration for fungi, tube dilution, A. niger (Table IV); conditions: Aspergillus niger, 48 h, read-out: Minimum Inhibitory Concentration, A. niger
Description: (§1) A tube dilution series of the respective compound in Sabouraud nutrient broth, whose individual tubes contained concentrations of 1024 μg, 512 μg, 256 μg, 128 μg, 64 μg, 32 μg, 16 μg, 8 μg, 4 μg, 2 μg, 1.1 μg and 0.5 μg/ml, was prepared and inoculated with a photometrically standardized suspension of the test organisms or the spores thereof.

C. albicans [2] = assay: Minimum inhibitory concentration for fungi, tube dilution, C. albicans (Table IV); conditions: Candida albicans, 48 h, read-out: Minimum Inhibitory Concentration, C. albicans
Description: as §1

Staphylococcus aureus = assay: Agar well inhibition zone test against bacteria, Staphylococcus aureus (Table III); conditions: quantity per well giving inhibition zone (500, 50, 5 μg tested); nutrient agar, 37°, 24 hours
Solubility in water = format: physicochemical; conditions: hydrochlorides or oxalates, read-out: solubilities (in water)
In short: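 Water solubility given for the hydrochloride salts of most compounds and for the oxalate salts of a few.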

E. coli [3] = assay: Minimum inhibitory concentration for bacteria, tube dilution, E. coli (Table V); format: cell-based; conditions: Escherichia coli, 48 h, read-out: Minimum Inhibitory Concentration, E. coli
Aspergillus niger = assay: Agar well inhibition zone test against fungi, Aspergillus niger (Table II); conditions: quantity per well giving inhibition zone (500, 50, 5 μg tested); Sabouraud agar, 28°, 48 hours
Description: The efficacy of the compounds against fungi was tested as follows:
The test organisms, in this case the blastomycete Candida albicans and the mold Aspergillus niger, were inoculated onto Sabouraud agar plates by pouring a photometrically adjusted standard suspension of organisms on the plate. After inoculation, wells with a diameter of 5.0 mm were punched in the agar, and filled with 50 ul of the compound solution mentioned before. The quantity of compound applied thus amounted to 500 μg, 50 μg and 5 μg. After incubation at 28° for 48 hours, the quantity of compound was determined at which an inhibition of the organism's growth, in form of an inhibition zone around the corresponding well, was present.

C. albicans [4] = assay: Minimum inhibitory concentration for fungi in presence of serum, C. albicans (Table VI); format: cell-based; conditions: Candida albicans; Sabouraud nutrient broth + 10% bovine serum, 28°C, 48 hours
Staph. aureus = assay: Minimum inhibitory concentration for bacteria, tube dilution, Staph. aureus (Table V); conditions: Staphylococcus aureus, 48 h, read-out: Minimum Inhibitory Concentration, Staph. aureus
Description: A tube dilution series of the respective compound in nutrient broth whose individual tubes contained concentrations of 1024 μg, 512 μg, 256 μg, 128 μg, 64 μg, 32 μg, 1 μg, 8 μg, 4 μg, 2 μg, 1.1 μg and 0.5 μg/ml was prepared and inoculated with a photometrically standardized suspension of the test organisms.

Escherichia coli = assay: Agar well inhibition zone test against bacteria, Escherichia coli (Table III); conditions: quantity per well giving inhibition zone (500, 50, 5 μg tested); nutrient agar, 37°, 24 hours
A. niger [5] = assay: Minimum inhibitory concentration for fungi in presence of serum, A. niger (Table VI); format: cell-based; conditions: Aspergillus niger; Sabouraud nutrient broth + 10% bovine serum, 28°C, 48 hours
E. coli [6] = assay: Minimum inhibitory concentration for bacteria in presence of serum, E. coli (Table VII); format: cell-based; conditions: Escherichia coli; nutrient broth + 10% serum, 37°C, 48 hours
[7] = tested on: Mycobacterium tuberculosis II 37 RV (typus humanus); assay: Efficacy against Mycobacteria, Tb-broth dilution series (Table I); format: cell-based; conditions: 504 h, Dubos Tb-broth + 10% bovine serum, 21 days, read-out: Minimum Inhibitory Concentration

Compound	Inhibition Area at μg, Cand. albicans (Candida albicans)	MIC (A. niger [1])	MIC (C. albicans [2])	Inhibition Area at μg, Staph. aureus (Staphylococcus aureus)	solubility (Solubility in water)	MIC (E. coli [3])	Inhibition Area at μg, Asp. niger (Aspergillus niger)	MIC (C. albicans [4])	MIC (Staph. aureus)	Inhibition Area at μg, E. coli (Escherichia coli)	MIC (A. niger [5])	MIC (E. coli [6])	MIC [7]
C(=C(CCN1CCN(CCN2CCCCC2)CC1)Cc1ccccc1)c1ccccc1 [LXIV]	50 µg	8 µg/mL (≈ 19.2 µM)	8 µg/mL (≈ 19.2 µM)	5 µg	100 mg/mL (≈ 239000 µM)	256 µg/mL (≈ 613 µM)	5 µg	128 µg/mL	8 µg/mL (≈ 19.2 µM)	5 µg	8 µg/mL		
CNCCCCCCN1CCN(C(C)C(=Cc2ccccc2)Cc2ccccc2)CC1 (stereo not drawn) [XLI, 1-phenyl-2-benzyl-3-[4'-(w-methyl-amino-n-hexyl)piperazino-1']-butene-1]	5 µg	1 µg/mL (≈ 2.38 µM)	2 µg/mL (≈ 4.77 µM)	50 µg	100 mg/mL (≈ 238000 µM)	32 µg/mL (≈ 76.3 µM)	5 µg	128 µg/mL	32 µg/mL (≈ 76.3 µM)	50 µg	8 µg/mL	512 µg/mL	
Clc1ccc(C=C(CCN2CCN(CCN3CCCCC3)CC2)Cc2ccc(Cl)cc2)cc1 [LXIII, 1-(p-chloro-phenyl)-2-(p-chlorobenzyl)-4-[4'-(β-piperidino-ethyl)-piperazino-1']-butene-1]	5 µg	< 0.5 µg/mL	32 µg/mL (≈ 65.8 µM)	5 µg	< 10 mg/mL	64 µg/mL (≈ 132 µM)	50 µg	128 µg/mL	8 µg/mL (≈ 16.4 µM)	5 µg	32 µg/mL		
CC(N1CCN(CCO)CC1)C(O)(Cc1ccc(Cl)cc1)Cc1ccc(Cl)cc1 (stereo not drawn) [XLVII, 1-(p-Chloro-phenyl)-2-(p-chloro-benzyl)-3-[4'-(β-hydroxyethyl)-piperazino-1']-butanol-2]	5 µg	32 µg/mL (≈ 73.2 µM)	32 µg/mL (≈ 73.2 µM)	5 µg	100 mg/mL (≈ 229000 µM)		5 µg	256 µg/mL	4 µg/mL (≈ 9.14 µM)	500 µg	64 µg/mL	> 1020 µg/mL	
Cc1cccc(CC(O)(Cc2cccc(C)c2)C(C)N2CCN(C)CC2)c1 (stereo not drawn) [IL, 1-m-tolyl-2-(m-methyl-benzyl)-3-(4'-methyl-piperazino-1')-butanol-2]	50 µg	32 µg/mL (≈ 87.3 µM)	32 µg/mL (≈ 87.3 µM)	50 µg	50 mg/mL (≈ 136000 µM)		50 µg	256 µg/mL	128 µg/mL (≈ 349 µM)	500 µg	128 µg/mL		100 µg/mL
CCCCCCCCNCCCCCCN1CCN(C(C)C(=Cc2ccccc2)Cc2ccccc2)CC1 (stereo not drawn) [XL, 1-phenyl-2-benzyl-3-[4'-(w-n-octyl-amino-n-hexyl)piperazino-1']-butene-1]	5 µg	< 0.5 µg/mL	< 0.5 µg/mL	5 µg	10 mg/mL (≈ 19300 µM)	32 µg/mL (≈ 61.8 µM)	5 µg	64 µg/mL	< 0.5 µg/mL	5 µg	2 µg/mL	1020 µg/mL	
CC(N1CCN(CCN(C)Cc2ccccc2)CC1)C(O)(Cc1ccccc1)Cc1ccccc1 (stereo not drawn) [XV, 1-phenyl-2-benzyl-3-[4'-(β-N-methyl-N-benzylamino-ethyl)-piperazino-1']-butanol-2]	50 µg	128 µg/mL (≈ 271 µM)	16 µg/mL (≈ 33.9 µM)	50 µg	100 mg/mL (≈ 212000 µM)	> 1020 µg/mL	50 µg	512 µg/mL	> 1020 µg/mL	50 µg			
CC(C(=Cc1ccc(Cl)cc1)Cc1ccc(Cl)cc1)N1CCN(CCN2CCN(C)CC2)CC1 (stereo not drawn) [XLII, 1-p-chloro-phenyl-2-p-chloro-benzyl-3-{4'-[β-(4"-methyl-piperazino-1")-ethyl]-piperazino-1'}-butene-1]	5 µg	< 0.5 µg/mL	< 0.5 µg/mL	5 µg	100 mg/mL (≈ 199000 µM)	32 µg/mL (≈ 63.8 µM)	5 µg	256 µg/mL	32 µg/mL (≈ 63.8 µM)	5 µg	32 µg/mL	1020 µg/mL	
